Data as given in US20230183224A1, “BEZOXAZINE DERIVATIVES USEFUL AS MONOACYLGLYCEROL LIPASE INHIBITORS” (Hoffmann-La Roche Inc., priority 2017, published 2023).

Target: T1, MAGL (recombinant wild-type) (Homo sapiens, UniProt Q99685)
T1 sequence (Q99685 1-303): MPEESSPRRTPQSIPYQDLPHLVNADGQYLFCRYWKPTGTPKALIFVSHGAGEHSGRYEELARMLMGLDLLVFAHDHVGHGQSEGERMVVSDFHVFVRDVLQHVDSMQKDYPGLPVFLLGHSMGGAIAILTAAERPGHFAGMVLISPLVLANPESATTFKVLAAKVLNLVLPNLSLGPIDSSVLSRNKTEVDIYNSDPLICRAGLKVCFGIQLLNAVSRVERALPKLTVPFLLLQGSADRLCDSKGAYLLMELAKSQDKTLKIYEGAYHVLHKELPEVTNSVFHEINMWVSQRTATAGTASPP
Assay: MAGL inhibitory activity, hydrolysis of 4-nitrophenylacetate to 4-nitrophenol (absorbance at 405 nm)
Assay type: biochemical
Conditions: 1 nM MAGL, 300 μM 4-nitrophenylacetate, 15 min preincubation at RT, slope of absorbance at 405 nm between 5 and 80 min
Procedure: Compounds were profiled for MAGL inhibitory activity by measuring the enzymatic activity of MAGL by following the hydrolysis of 4-nitorphenylacetate resulting in 4-nitrophenol, which absorbs at 405-412 nm (G. G. Muccioli, G. Labar, D. M. Lambert, Chem. Bio. Chem. 2008, 9, 2704-2710).
The assay was carried out in 384 well assay plates (black with clear bottom, non-binding surface treated, Corning Ref. 3655) in a total volume of 40 μL. Compound dilutions were made in 100% DMSO (VWR Chemicals 23500.297) in a polypropylene plate in 3-fold dilution steps to give a final concentration range in the assay from 25 μM to 1.7 nM. 1 μL compound dilutions (100% DMSO) were added to 19 μL MAGL (recombinant wild-type) in assay buffer (50 mM TRIS (GIBCO, 15567-027), 1 mM EDTA (Fluka, 03690-100 ml)). The plate was shaked for 1 min at 2000 rpm (Variomag Teleshake) and then incubated for 15 min at RT. To start the reaction, 20 μL 4-Nitrophenlyacetate (Sigma N-8130) in assay buffer with 6% EtOH was added. The final concentrations in the assay were 1 nM MAGL and 300 μM 4-Nitrophenylacetate. After shaking (1 m, 2000 rpm) and 5 min incubation at RT, the absorbance at 405 nm was measured for a first time (Molecular Devices, SpectraMax Paradigm). A second measurement was then done after incubation for 80 min at RT. From the two measurements, the slope was calculated by subtracting the first from the second measurement.

O=C1COc2ccc(C(=O)N3CCN(Cc4ccc(C(F)(F)F)cc4)C(c4cc[nH]n4)C3)cc2N1 (stereo not shown) [Example 37, 6-[3-(1H-pyrazol-3-yl)-4-[[4-(trifluoromethyl)phenyl]methyl]piperazine-1-carbonyl]-4H-1,4-benzoxazin-3-one]
IC50: 2250 nM
